Laboratory results reported in US20040009185A1, “Enhancing the immune response to an antigen by presensitzing with an inducing agent prior to immunizing with the agent and the antigen” (priority 2003, published 2004).

Assays:
[1] = system: gp100 (native or modified); type: in vivo, A2Kb transgenic mice; conditions: priming with 20.0 μg toxoid i.m., then ALVAC gp100 recombinant given as a mixture with the toxoid; FIGS. 7 and 8
CEA = type: in vivo, A2Kb transgenic mice; conditions: priming with 20.0 μg toxoid i.m., then ALVAC CEA recombinant given as a mixture with the toxoid; FIG. 6
modified gp100 = system: modified gp100; set-up: species or system A2Kb transgenic mice; conditions: mouse, in vivo

Row | Substance | immune response to the modified gp100 and gp100 antigens (reactive T cells, IFN gamma ELISPOT) [1] | immune response to the CEA antigen (reactive T cells, IFN gamma ELISPOT) (CEA) | immune response to the immunogen modified gp100 (gp100-specific CTL response) (modified gp100)
1 | diphtheria toxoid | clearly enhanced | clearly enhanced | 
2 | tetanus toxoid | clearly enhanced | clearly enhanced | clearly enhanced
